# Assay results: PMC6934184, “Selective DNA-PKcs inhibition extends the therapeutic index of localized radiotherapy and chemotherapy” (The Journal of Clinical Investigation, 2019)
# Target: T1, NUAK1 (ARK5) (Homo sapiens, UniProt O60285)
# T1 construct: purchased Thermo Fisher Scientific (Life Technologies) SelectScreen
# Experiment: SelectScreen Adapta
# Format: biochemical
# Protocol: The in vitro kinase selectivity of NU5455 was determined using the SelectScreen Broad Assay Panel (Thermo Fisher Scientific) involving activity and binding assays (Supplemental Table 1). […] Class IA PI3Ks were measured using the p85α subunit.
# Kinase [ATP] % Assay Kinase [ATP] % Assay Kinase [ATP] % Assay Kinase [ATP] % Assay […]
# SNF1LK2 Km app 26.6 Z MINK1 Km app 4.6 Z NUAK1 (ARK5) Km app 1.2 A AMPK (A2/B2/G2) n/a -2.6 L […]
# SGK (SGK1) Km app 8.5 Z MAP4K2 (GCK) Km app 2.7 Z TLK2 n/a -0.3 L STK38 (NDR) n/a -5.9 L
# MERTK (cMER) Km app 8.3 Z CDK2/cyclin A Km app 2.7 Z TGFBR1 (ALK5) n/a -0.4 L MATK (HYL) Km app -6.3 Z
# FYN Km app 8.3 Z EPHA1 Km app 2.7 Z CLK3 Km app -0.5 Z ABL1 E255K Km app -6.6 Z
# TEC n/a 8.1 L CDK2/cyclin E1 n/a 2.7 L MAP3K14 (NIK) n/a -0.5 L STK17A (DRAK1) n/a -6.6 L
# KIT V654A n/a 8.1 L TESK2 n/a 2.7 L AKT3 (PKB gamma) Km app -0.5 Z JAK2 JH1 JH2 Km app -6.7 Z
# ROS1 Km app 8.0 Z SPHK1 Km app 2.7 A MAP3K9 (MLK1) Km app -0.5 Z PRKACB (PRKAC beta) n/a -6.8 L
# FGFR3 K650E Km app 7.9 Z AMPK A2/B1/G1 Km app 2.6 Z IKBKB (IKK beta) Km app -0.6 Z PDGFRA (PDGFR alpha) Km app -6.8 Z
# RAF1 (cRAF) Y340D Y341D 100 7.9 Z DYRK3 Km app 2.6 Z CAMK2A (CaMKII alpha) Km app -0.6 Z NEK9 Km app -7.2 Z
# PI4KA (PI4K alpha) 10 7.8 A CSNK1D (CK1 delta) Km app 2.6 Z PRKCB1 (PKC beta I) Km app -0.7 Z PDK1 Km app -7.3 Z
# HIPK2 Km app 7.8 Z ACVR2A n/a 2.5 L TTK n/a -0.7 L RPS6KB1 (p70S6K) Km app -7.8 Z […]
# T1 sequence (O60285 whole entry): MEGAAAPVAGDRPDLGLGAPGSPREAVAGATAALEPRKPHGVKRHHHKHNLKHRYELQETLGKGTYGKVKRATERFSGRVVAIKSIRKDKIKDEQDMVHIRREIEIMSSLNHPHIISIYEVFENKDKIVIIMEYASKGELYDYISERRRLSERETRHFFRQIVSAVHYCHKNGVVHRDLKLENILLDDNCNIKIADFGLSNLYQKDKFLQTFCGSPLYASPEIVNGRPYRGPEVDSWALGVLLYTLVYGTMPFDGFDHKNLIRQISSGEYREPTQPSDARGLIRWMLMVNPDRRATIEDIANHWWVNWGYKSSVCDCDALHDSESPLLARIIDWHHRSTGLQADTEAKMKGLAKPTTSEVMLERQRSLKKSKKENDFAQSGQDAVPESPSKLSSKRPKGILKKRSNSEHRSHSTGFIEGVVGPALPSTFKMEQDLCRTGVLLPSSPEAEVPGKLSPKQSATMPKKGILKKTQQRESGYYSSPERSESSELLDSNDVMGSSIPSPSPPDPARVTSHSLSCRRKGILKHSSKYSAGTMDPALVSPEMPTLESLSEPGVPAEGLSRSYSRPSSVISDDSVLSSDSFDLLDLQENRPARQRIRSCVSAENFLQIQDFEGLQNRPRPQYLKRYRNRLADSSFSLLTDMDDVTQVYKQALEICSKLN
smiles,measurement,value
CN(C(=O)CN1CCOCC1)c1ccc2sc3c(-c4cccc5c(=O)cc(N6CC7CCC(C6)O7)oc45)cccc3c2c1 [NU5455],inhibition at 1 µM,1.2%
